# Literature values as cited in patent publication US20080063781A1, “Globin Digest Containing, Yeast-Fermented Beverages” (Suntory Limited, priority 2004, published 2008).
# Tested on: serum triglyceride levels
# Details: reported in JP 9-255698 A
row,Substance,suppressive activity against the elevation of serum triglyceride levels
1,Val-Thr-Leu [VTL],strong suppressive activity against the elevation of serum triglyceride levels
2,Val-Val-Tyr-Pro (VVYP; printed: Val-Val-Tyr-Pro),strong suppressive activity against the elevation of serum triglyceride levels
